# Where “and” joins values, the source holds several entries; their conditions need not be identical. Equal entries are not always repeated.
# How the values were obtained:
# [1] = Metabolic stability in rat liver microsomes (RLMs); conditions: rat, microsomes
# [2] = Passive artificial membrane permeability (PAMPA); conditions: for PAMPA permeability: % permeability: 50 μM, 12–18 h, acceptor concentration relative to equilibrium; for Papp at 50 μM / Permeability% Average / Permeability% R1 / Permeability% R3: PAMPA; for Papp at 50 μM: pH 7.4; for Permeability% Average: average of R1-R3; for Permeability% R1: replicate R1; for Permeability% R1 / Permeability% R3: TIC of top well sample relative to sample at theoretical equilibrium; for Permeability% R3: replicate R3
# rat α-thrombin = biological target: T1, rat α-thrombin (Rattus norvegicus, UniProt P18292); assay: Protease inhibition, Ki for rat α-thrombin (fluorogenic substrate Z-Gly-Gly-Arg-AMC); type: biochemical; conditions: replicates R1-R3
# T1 construct: rat α-thrombin (Molecular Innovations) were used at final concentrations of 2 nM and 3 nM; purchased Molecular Innovations
# Method in brief: (§1)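 Inhibition was measured as AMC fluorescence from 50 μM substrate, monitored for 30 min at 25 °C, relative to a peptide-free control. Human and rat enzymes were present at 2 nM and 3 nM final, respectively, in 50 mM Tris-HCl pH 7.4, 150 mM NaCl, 10 mM MgCl2, 1 mM CaCl2. Ki derives from fitted IC50 via Cheng–Prusoff.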
# human α-thrombin = human α-thrombin (Homo sapiens, UniProt P00734); assay: Protease inhibition, Ki for human α-thrombin (fluorogenic substrate Z-Gly-Gly-Arg-AMC); type: biochemical; conditions: replicates R1-R3
# Method in brief: as §1
# [3] = Peptide stability in simulated intestinal fluid (SIF); type: in vitro ADME, porcine; conditions: simulated gi fluid; 8 h, 37 °C, pH 6.8; read-out: Proteolytic stability: SIF (8 h) % remaining
# Method in brief: (§2)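 Peptide from a 1 mM DMSO stock was added to fluid pre-warmed at 37 °C. SGF was pH 1.2 NaCl with porcine pepsin (0.32 g per 100 ml), and SIF was pH 6.8 potassium phosphate with porcine pancreatin (1 g per 100 ml). Supernatant peptide was quantified by LC–MS, with residual expressed as T1/T0.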
# porcine pancreatin = assay: as above; type: in vitro ADME; conditions: after 8 h vs 0 h (TIC); for SIF stability, Residual peptide Average: average of R1-R3; for SIF stability, Residual peptide: single replicates R1-R3
# Method in brief: as §2
# porcine pepsin = biological target: T2, porcine pepsin (Sus scrofa, UniProt P00791); assay: Peptide stability in simulated gastric fluid (SGF); type: in vitro ADME; conditions: for SGF stability, Residual peptide Average / SGF stability, Residual peptide: after 8 h vs 0 h (TIC); for SGF stability, Residual peptide Average: average of R1-R3; for SGF stability, Residual peptide: single replicates R1-R3; for remaining at 8 h: simulated gi fluid, 37 °C, pH 1.2, read-out: Proteolytic stability: SGF (8 h) % remaining
# T2 construct: 0.32 g of porcine pepsin (Sigma-Aldrich, P7125) was dissolved under gentle agitation; purchased Sigma-Aldrich P7125
# T2 sequence (P00791 60-385): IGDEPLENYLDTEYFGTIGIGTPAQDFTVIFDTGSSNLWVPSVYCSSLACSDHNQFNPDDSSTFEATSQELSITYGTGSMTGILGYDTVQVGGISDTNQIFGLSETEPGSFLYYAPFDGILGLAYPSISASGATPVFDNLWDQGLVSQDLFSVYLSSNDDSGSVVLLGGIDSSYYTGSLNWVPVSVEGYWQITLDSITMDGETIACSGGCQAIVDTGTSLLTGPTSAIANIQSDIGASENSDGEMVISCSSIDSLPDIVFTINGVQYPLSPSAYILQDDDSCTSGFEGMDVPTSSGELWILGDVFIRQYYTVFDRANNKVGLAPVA
# Method in brief: as §2
# [4] = CL (ul/min/mg protein) R1, RLM CL, replicate R1
# [5] = CL (ul/min/mg protein) R2, RLM CL, replicate R2
# [6] = CL (ul/min/mg protein) R3, RLM CL, replicate R3
# [7] = Half Life (min) R1, RLM metabolic stability, replicate R1, 0-60 min
# [8] = Half Life (min) R2, RLM metabolic stability, replicate R2, 0-60 min
# [9] = Half Life (min) R3, RLM metabolic stability, replicate R3, 0-60 min
# [10] = Metabolic stability: Half life T1/2 (min), RLMs, mean and SD, three measurements
# [11] = Metabolic stability: RLM CL (ul/min/mg), RLMs, mean and SD, three measurements
# [12] = peptide 1.33E+02 uM, slope of proteolytic substrate cleavage over time
structure (smiles),measurement,setting,value
O=C1NCCSCc2cccc(n2)CSC[C@H](NC(=O)c2ccc(Cl)s2)C(=O)N[C@@H](CO)C(=O)NCc2ccc1cc2 [compound 25],microsomal CLint,[1]; [4],99.1 µL/min/mg
same,microsomal CLint,[1]; [5],76.5 µL/min/mg
same,microsomal CLint,[1]; [6],112 µL/min/mg
same,half-life,[1]; [7],14 min
same,half-life,[1]; [8],18.1 min
same,half-life,[1]; [9],12.4 min
same,half-life,[1]; [10],14.8 ± 2.4 min
same,microsomal CLint,[1]; [11],96 ± 15 µL/min/mg
same,PAMPA permeability: % permeability,[2],0.62 ± 0.14%
same,Papp at 50 μM,[2],0.0407 ×10⁻⁶ cm/s
same,Permeability% Average,[2],0.6%
same,Permeability% R1,[2],0.77%
same,Permeability% R3,[2],0.57%
same,"Rat alpha thrombin inhibition, slope normalized to DMSO",rat α-thrombin; [12],3.8 and 4.8 and 16.3
same,"Rat alpha thrombin inhibition, slope normalized to DMSO",rat α-thrombin; peptide 1.67E+01 uM,8.5 and 7.5 and 19.4
same,"Rat alpha thrombin inhibition, slope normalized to DMSO",rat α-thrombin; peptide 2.08E+00 uM,35.4 and 36.0 and 40.9
same,"Rat alpha thrombin inhibition, slope normalized to DMSO",rat α-thrombin; peptide 3.33E+01 uM,4.1 and 4.6 and 17.1
same,"Rat alpha thrombin inhibition, slope normalized to DMSO",rat α-thrombin; peptide 4.17E+00 uM,23.4 and 23.3 and 26.8
same,"Rat alpha thrombin inhibition, slope normalized to DMSO",rat α-thrombin; peptide 6.67E+01 uM,3.8 and 4.6 and 15.5
same,"Rat alpha thrombin inhibition, slope normalized to DMSO",rat α-thrombin; peptide 8.33E+00 uM,13.7 and 14.0 and 21.8
same,"Human alpha thrombin inhibition, slope normalized to DMSO",human α-thrombin; peptide 1.02E-03 uM,94.7 and 95.3 and 98.5
same,"Human alpha thrombin inhibition, slope normalized to DMSO",human α-thrombin; peptide 1.04E+00 uM,75.5 and 74.4 and 76.2
same,"Human alpha thrombin inhibition, slope normalized to DMSO",human α-thrombin; peptide 1.27E-04 uM,97.4 and 68.3 and 98.0
same,"Human alpha thrombin inhibition, slope normalized to DMSO",human α-thrombin; peptide 1.30E-01 uM,93.0 and 91.1 and 92.8
same,"Human alpha thrombin inhibition, slope normalized to DMSO",human α-thrombin; [12],13.5 and 15.1 and 12.6
same,"Human alpha thrombin inhibition, slope normalized to DMSO",human α-thrombin; peptide 1.63E-02 uM,97.4 and 90.6 and 97.7
same,"Human alpha thrombin inhibition, slope normalized to DMSO",human α-thrombin; peptide 1.67E+01 uM,26.1 and 29.0 and 29.2
same,"Human alpha thrombin inhibition, slope normalized to DMSO",human α-thrombin; peptide 2.03E-03 uM,98.6 and 102.5 and 100.6
same,"Human alpha thrombin inhibition, slope normalized to DMSO",human α-thrombin; peptide 2.08E+00 uM,73.0 and 60.5 and 66.8
same,"Human alpha thrombin inhibition, slope normalized to DMSO",human α-thrombin; peptide 2.54E-04 uM,97.8 and 93.6 and 92.8
same,"Human alpha thrombin inhibition, slope normalized to DMSO",human α-thrombin; peptide 2.60E-01 uM,88.6 and 90.7 and 89.6
same,"Human alpha thrombin inhibition, slope normalized to DMSO",human α-thrombin; peptide 3.18E-05 uM,97.1 and 94.4 and 99.6
same,"Human alpha thrombin inhibition, slope normalized to DMSO",human α-thrombin; peptide 3.26E-02 uM,101.4 and 92.5 and 97.5
same,"Human alpha thrombin inhibition, slope normalized to DMSO",human α-thrombin; peptide 3.33E+01 uM,14.8 and 16.8 and 15.8
same,"Human alpha thrombin inhibition, slope normalized to DMSO",human α-thrombin; peptide 4.07E-03 uM,99.3 and 94.9 and 93.4
same,"Human alpha thrombin inhibition, slope normalized to DMSO",human α-thrombin; peptide 4.17E+00 uM,57.1 (2×) and 55.7
same,"Human alpha thrombin inhibition, slope normalized to DMSO",human α-thrombin; peptide 5.09E-04 uM,99.4 and 94.7 and 120.6
same,"Human alpha thrombin inhibition, slope normalized to DMSO",human α-thrombin; peptide 5.21E-01 uM,84.0 and 81.7 and 83.0
same,"Human alpha thrombin inhibition, slope normalized to DMSO",human α-thrombin; peptide 6.36E-05 uM,93.6 and 95.3 and 99.3
same,"Human alpha thrombin inhibition, slope normalized to DMSO",human α-thrombin; peptide 6.51E-02 uM,95.9 and 74.7 and 94.1
same,"Human alpha thrombin inhibition, slope normalized to DMSO",human α-thrombin; peptide 6.67E+01 uM,13.4 and 15.6 and 21.8
same,"Human alpha thrombin inhibition, slope normalized to DMSO",human α-thrombin; peptide 8.14E-03 uM,96.7 and 95.4 and 97.4
same,"Human alpha thrombin inhibition, slope normalized to DMSO",human α-thrombin; peptide 8.33E+00 uM,44.0 and 41.9 and 43.6
same,remaining at 8 h,[3],93 ± 9%
same,"SIF stability, Residual peptide Average",porcine pancreatin,93.12
same,"SIF stability, Residual peptide",porcine pancreatin,102.84 and 84.15 and 92.36
same,"SGF stability, Residual peptide Average",porcine pepsin,101.05
same,"SGF stability, Residual peptide",porcine pepsin,110.75 and 95.01 and 97.38
same,remaining at 8 h,porcine pepsin,101 ± 8%
C[C@@H]1NC(=O)[C@@H](NC(=O)c2ccc(Cl)s2)CSCc2cccc(n2)CSCCNC(=O)c2ccc(cc2)CNC1=O [compound 26],microsomal CLint,[1]; [4],73.3 µL/min/mg
same,microsomal CLint,[1]; [5],121 µL/min/mg
same,microsomal CLint,[1]; [6],129 µL/min/mg
same,half-life,[1]; [7],18.9 min
same,half-life,[1]; [8],11.4 min
same,half-life,[1]; [9],10.8 min
same,half-life,[1]; [10],13.7 ± 3.7 min
same,microsomal CLint,[1]; [11],108 ± 25 µL/min/mg
same,PAMPA permeability: % permeability,[2],4.3 ± 1.6%
same,Papp at 50 μM,[2],0.275 ×10⁻⁶ cm/s
same,Permeability% Average,[2],4.3%
same,Permeability% R1,[2],2.49%
same,Permeability% R3,[2],5.45%
same,"Rat alpha thrombin inhibition, slope normalized to DMSO",rat α-thrombin; [12],14.8 and 14.9 and 15.8
same,"Rat alpha thrombin inhibition, slope normalized to DMSO",rat α-thrombin; peptide 1.67E+01 uM,13.6 and 25.5 and 34.3
same,"Rat alpha thrombin inhibition, slope normalized to DMSO",rat α-thrombin; peptide 2.08E+00 uM,26.5 and 27.8 and 27.7
same,"Rat alpha thrombin inhibition, slope normalized to DMSO",rat α-thrombin; peptide 3.33E+01 uM,22.7 and 27.1 and 25.7
same,"Rat alpha thrombin inhibition, slope normalized to DMSO",rat α-thrombin; peptide 4.17E+00 uM,20.6 (2×) and 20.4
same,"Rat alpha thrombin inhibition, slope normalized to DMSO",rat α-thrombin; peptide 6.67E+01 uM,19.9 and 22.5 and 21.1
same,"Rat alpha thrombin inhibition, slope normalized to DMSO",rat α-thrombin; peptide 8.33E+00 uM,13.5 and 20.1 and 24.1
same,"Human alpha thrombin inhibition, slope normalized to DMSO",human α-thrombin; peptide 1.02E-03 uM,99.9 and 93.8 and 93.5
same,"Human alpha thrombin inhibition, slope normalized to DMSO",human α-thrombin; peptide 1.04E+00 uM,74.0 and 69.6 and 63.3
same,"Human alpha thrombin inhibition, slope normalized to DMSO",human α-thrombin; peptide 1.27E-04 uM,95.9 and 97.1 and 89.9
same,"Human alpha thrombin inhibition, slope normalized to DMSO",human α-thrombin; peptide 1.30E-01 uM,97.4 and 88.7 and 84.7
same,"Human alpha thrombin inhibition, slope normalized to DMSO",human α-thrombin; [12],48.0 and 48.9 and 38.9
same,"Human alpha thrombin inhibition, slope normalized to DMSO",human α-thrombin; peptide 1.63E-02 uM,100.4 and 97.8 and 90.3
same,"Human alpha thrombin inhibition, slope normalized to DMSO",human α-thrombin; peptide 1.67E+01 uM,53.6 and 73.4 and 36.5
same,"Human alpha thrombin inhibition, slope normalized to DMSO",human α-thrombin; peptide 2.03E-03 uM,104.9 and 96.2 and 90.3
same,"Human alpha thrombin inhibition, slope normalized to DMSO",human α-thrombin; peptide 2.08E+00 uM,55.5 and 68.9 and 56.1
same,"Human alpha thrombin inhibition, slope normalized to DMSO",human α-thrombin; peptide 2.54E-04 uM,98.8 and 99.4 and 90.5
same,"Human alpha thrombin inhibition, slope normalized to DMSO",human α-thrombin; peptide 2.60E-01 uM,80.8 and 89.0 and 86.0
same,"Human alpha thrombin inhibition, slope normalized to DMSO",human α-thrombin; peptide 3.18E-05 uM,84.7 and 96.5 and 92.2
same,"Human alpha thrombin inhibition, slope normalized to DMSO",human α-thrombin; peptide 3.26E-02 uM,93.0 and 90.7 and 88.1
same,"Human alpha thrombin inhibition, slope normalized to DMSO",human α-thrombin; peptide 3.33E+01 uM,66.3 and 62.6 and 52.3
same,"Human alpha thrombin inhibition, slope normalized to DMSO",human α-thrombin; peptide 4.07E-03 uM,103.1 and 97.8 and 89.7
same,"Human alpha thrombin inhibition, slope normalized to DMSO",human α-thrombin; peptide 4.17E+00 uM,60.4 and 78.0 and 53.8
same,"Human alpha thrombin inhibition, slope normalized to DMSO",human α-thrombin; peptide 5.09E-04 uM,103.6 and 97.9 and 97.0
same,"Human alpha thrombin inhibition, slope normalized to DMSO",human α-thrombin; peptide 5.21E-01 uM,81.6 and 82.6 and 73.0
same,"Human alpha thrombin inhibition, slope normalized to DMSO",human α-thrombin; peptide 6.36E-05 uM,100.1 and 99.2 and 93.6
same,"Human alpha thrombin inhibition, slope normalized to DMSO",human α-thrombin; peptide 6.51E-02 uM,92.5 and 99.9 and 84.8
same,"Human alpha thrombin inhibition, slope normalized to DMSO",human α-thrombin; peptide 6.67E+01 uM,54.4 and 57.2 and 52.4
same,"Human alpha thrombin inhibition, slope normalized to DMSO",human α-thrombin; peptide 8.14E-03 uM,104.4 and 96.4 and 91.9
same,"Human alpha thrombin inhibition, slope normalized to DMSO",human α-thrombin; peptide 8.33E+00 uM,36.8 and 64.2 and 38.3
same,remaining at 8 h,[3],88 ± 5%
same,"SIF stability, Residual peptide Average",porcine pancreatin,88.29
same,"SIF stability, Residual peptide",porcine pancreatin,90.18 and 82.19 and 92.51
same,"SGF stability, Residual peptide Average",porcine pepsin,97.08
same,"SGF stability, Residual peptide",porcine pepsin,97.29 and 98.54 and 95.42
same,remaining at 8 h,porcine pepsin,97 ± 2%
